In experiment [1] the test system is fatty acid synthesis in B. napus cells. Briefly: 14C-acetate / 14C-malonate labeling of lipids (feedback inhibition of fatty acid synthesis). In kind it is cell-based, Brassica napus. As for the experimental part: All radioisotopes were obtained from American Radiolabeled Chemicals (St. Louis, Mo. USA). Labeling was conducted on cells 5 days after subculturing with a culture density of ˜20 mg FW mL^−1 and that had medium refreshed 16 h prior. For labeling, three 1 mL aliquots of cells were carefully removed from each flask and were labeled with either 0.2 μCi of 1,2-^14C-acetate (50-60 mCi mmol^−1) or 2-^14C-malonate (40-60 mCi mmol^−1) for 15 minutes at 25° C. with occasional shaking. Haloxyfop (Sigma) was dissolved in DMSO and added 30 min prior to labeling. Lipids were extracted and separated by TLC as described above. Radioactivity was detected by phosphorimaging and was quantified using ImageQuant software (GE Healthcare, Piscataway, N.J., USA). Incorporation of label into individual fatty acids was determined by making FAMEs as described above, separating the methyl esters by TLC as described in (Koo, Fulda, Browse and Ohlrogge 2005, Plant J, 44, 620-632) and measuring radioactivity by phosphorimaging.
Feedback inhibition of fatty acid synthesis was measured by the addition of a ^14C-acetate tracer. […] Sterol synthesis is dependent on acetyl-CoA and ATP, both of which are required for fatty acid synthesis. Therefore, if fatty acid synthesis is inhibited due to substrate limitation; so should be sterol biosynthesis. ^14C-acetate incorporation into sterols was unaffected by Tween-80 feeding, while incorporation into free fatty acids mirrored that of total lipids (FIG. 5), showing that the effect is restricted to fatty acid synthesis. […] Three hour time points were used for the remainder of this study to separate the period of maximum feedback inhibition from any lipid homeostatic mechanisms arising from the gross fatty acid compositional changes caused by long term Tween-80 feeding.
Plants contain plastidic and cytosolic ACCase and F AS enzyme systems, both of which are capable of incorporating ^14C-acetate into fatty acids. Comparing the distribution of label in individual fatty acid species can therefore provide information on the relative contribution of these pathways. […] The degree to which ^14C-acetate incorporation is inhibited by haloxyfop is proportional to cytosolic elongation activity, whereas haloxyfop-resistant incorporation is from the de nova pathway inside the plastid.
To separate these possibilities, we exploited the fact that exogenous malonate can be converted to malonyl-CoA and used by FAS, bypassing the ACCase reaction (Kannangara et al. 1973, Plant Physiol, 52, 156-161). If ACCase is the only point of inhibition then the rate of ^14C-malonate labeling of de novo fatty acids should be the same in cultures with or without Tween-80. […] Therefore ACCase, and not F AS, is inhibited by Tween-80 feeding. When combined, the data from FIG. 6 unambiguously identify plastidic ACCase as the target of Tween-80 induced feedback inhibition.

Experiment [2] deals with Brassica napus cv Jet Neuf suspension cell cultures. The experiment is described as follows: Cell culture growth and analysis of B. napus suspension cells fed Tween-80. In kind it is cell-based. The following applies: concentrations up to 10 mM. How it is done: Brassica napus cv Jet Neuf suspension cell cultures were grown in NLN medium (Lichter 1982, Z. Pflanzenphysiol, 105, 427-434) with modifications (Shi et al. 2008, Plant Cell Tiss Org, 92 131-139). Cells were grown shaking at 160 rpm at 25° C. in either 50 mL or 100 mL volumes (in 125 mL or 250 mL flasks, respectively) under constant fluorescent light at 50 […]. Medium was refreshed every 48 h for experiments lasting longer than two days. Tween-esters were obtained from Sigma (St. Louis, Mo. USA). A 150 mM stock solution was made by dissolving 9.8 g in 50 mL of water and it was filter sterilized before addition to cultures. Subculturing was done every eight days and new cultures were inoculated with about 200 mg of cells. Cells were harvested by filtering with a Buchner funnel, were rinsed three times with distilled water, and were frozen immediately in liquid N2 in preweighed aluminum foil pouches. Dry weight to fresh weight ratio was determined by lyophilizing a known fresh weight of cells. For SDS-PAGE, proteins were extracted in 3 volumes (w/v) of 50 mM Tris-Cl, pH 7.5, 10 mM KCl, 5 mM MgCl2, 1 mM EDTA, 1 mM DTT, 0.1% Triton X-100, and were quantified by Bradford assay.
In order to study the feedback regulation of fatty acid synthesis it was necessary to first establish conditions where fatty acids could be fed while minimizing any negative pleiotropic effects. […]

With Tween-80, the “reduction of incorporation of 14C-acetate into fatty acids” value in experiment [1] (3 hours of 10 mM Tween-80 feeding) is given as 40%. Further, the “incorporation of 14C-malonate into 16 and 18 carbon fatty acids” value in experiment [1] (3 hours of 10 mM Tween-80 feeding, compared to 14C-acetate labeled controls) is “not inhibited”. Further, the “14C-acetate incorporation into sterols” value in experiment [1] (Tween-80 feeding) is reported as “unaffected”. Further, the “reversibility of feedback inhibition after removal” value in experiment [1] (after removal of Tween-80 following 3 hour exposure to 10 mM) is “completely reversible”. Also, the “haloxyfop-resistant 14C-acetate incorporation” value in experiment [1] (cultures with 10 mM Tween-80) was “reduced by about half”. In experiment [1] (relative to a control sample without any Tweens, mean of three repeats ± SD), the “Relative 14C-acetate incorporation (% control)” value amounted to 50.9 ± 7.0 % control. In addition, in experiment [1] (three hours after addition of 10 mM Tween-80), the “reduction of rate of 14C-acetate incorporation into lipids” value is 40%. Moreover, in experiment [2], the “effect on growth rate” value is “no effect”.

The values above are taken from US20140230091A1, “MODIFIED PLANTS WITH INCREASED OIL CONTENT” (BROOKHAVEN SCIENCE ASSOCIATES, LLC, priority 2011, published 2014).
